Read-outs that look alike come from different tables or passages of the source.
Experiments:
[1] = target: T1, human 5-hydroxytryptamine receptor 1A (5-HT1A) (Homo sapiens, UniProt P08908); assay: Human 5-HT1A radioligand binding assay ([3H]-8-Hydroxy-DPAT)
T1 sequence (P08908 1-422): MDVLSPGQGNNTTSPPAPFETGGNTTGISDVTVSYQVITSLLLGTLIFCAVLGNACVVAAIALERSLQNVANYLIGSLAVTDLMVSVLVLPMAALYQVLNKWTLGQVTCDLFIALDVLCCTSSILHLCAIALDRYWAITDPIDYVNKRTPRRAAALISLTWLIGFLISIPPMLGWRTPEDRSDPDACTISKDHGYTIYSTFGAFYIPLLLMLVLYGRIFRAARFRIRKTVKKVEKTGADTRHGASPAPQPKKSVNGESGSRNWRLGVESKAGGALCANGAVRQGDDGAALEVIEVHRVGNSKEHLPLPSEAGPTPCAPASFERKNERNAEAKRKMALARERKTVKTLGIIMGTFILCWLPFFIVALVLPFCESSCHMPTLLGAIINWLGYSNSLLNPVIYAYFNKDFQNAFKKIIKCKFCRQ
Method: The objective of this study was to evaluate the binding properties of test compounds on 5-hydroxytryptamine receptor 1A (5-HT1A).
1. The assay buffer was prepared following Table 25 below.
2. 8 doses of reference and test compounds were prepared starting from 10 mM stock solution as required by 5-fold serial dilutions with 100% (v/v) DMSO.
3. UniFilter-96 GF/B plate was pretreated: • i. 50 μl/well of 0.5% (v/v) PEI was added to UniFilter-96 GF/B plates. The plates were sealed and incubated at 4° C. for 3 hrs. • ii. After incubation, the plates were washed 3 times with ice-cold wash buffer (50 mM Tris, pH7.4).
4. Assay plate was prepared: • i. Cell membrane was diluted with assay buffer and 100 μl/well was added to 96 round well plates to reach a concentration of 20 μg/well. • ii. 8 concentrations of reference or test compounds were prepared and 50 μl/well was added to 96 round deep well plates. • iii. [3H]-8-Hydroxy-DPAT was diluted with assay buffer to 2 nM (4× final concentration) and 50 μl/well was added to 96 round well plates.
5. The plate was centrifuged at 1000 rpm for 30 secs and then agitated at 600 rpm at room temperature for 5 min.
6. The plates were sealed and the plate was incubated at 27° C. for 90 min.
7. The incubation was stopped by vacuum filtration onto GF/B filter plates followed by 4 times washing with ice-cold wash buffer (50 mM Tris, pH7.4).
9. The filter plates were sealed and 40 μl/well of scintillation cocktail was added.
10. The plate was read by using a Microbeta^2 microplate counter.
1. For reference and test compounds, the results were expressed as % Inhibition, using the normalization equation: N=100−100×(U−C2)/(C1−C2), where U is the unknown value, C1 is the average of high controls, and C2 is the average of low controls.
2. The IC50 was determined by fitting percentage of inhibition as a […] of compound concentrations with Hill equation using XLfit.
1. The assay buffer was prepared following Table 55 below.
3. UniFilter-96 GF/B plate was pretreated: • i. 50 μL/well of 0.5% (v/v) PEI was added to UniFilter-96 GF/B plates. The plates were sealed and incubated at 4° C. for 3 hrs. • ii. After incubation, the plates were washed 3 times with ice-cold wash buffer (50 mM Tris, pH7.4).
4. Assay plate was prepared: • i. Cell membrane was diluted with assay buffer and 100 μl/well was added to 96 round well plates to reach a concentration of 20 μg/well. • ii. 8 concentrations of reference or test compounds were prepared and 50 μl/well was added to 96 round deep well plates. • iii. [3H]-8-Hydroxy-DPAT was diluted with assay buffer to 2 nM (4× final concentration) and 50 μL/well was added to 96 round well plates.

human 5-HT2C receptor = target: T2, human 5-HT2C receptor (Homo sapiens, UniProt P28335); assay: cell-based; settings: calcium mobilization FLIPR; for Emax (% of serotonin): U2OS cells, relative to maximum response of serotonin; for EC50: stably transfected U2OS cells
T2 construct: expressed in transfected cells; host or cells: U2OS
T2 sequence (P28335 33-458): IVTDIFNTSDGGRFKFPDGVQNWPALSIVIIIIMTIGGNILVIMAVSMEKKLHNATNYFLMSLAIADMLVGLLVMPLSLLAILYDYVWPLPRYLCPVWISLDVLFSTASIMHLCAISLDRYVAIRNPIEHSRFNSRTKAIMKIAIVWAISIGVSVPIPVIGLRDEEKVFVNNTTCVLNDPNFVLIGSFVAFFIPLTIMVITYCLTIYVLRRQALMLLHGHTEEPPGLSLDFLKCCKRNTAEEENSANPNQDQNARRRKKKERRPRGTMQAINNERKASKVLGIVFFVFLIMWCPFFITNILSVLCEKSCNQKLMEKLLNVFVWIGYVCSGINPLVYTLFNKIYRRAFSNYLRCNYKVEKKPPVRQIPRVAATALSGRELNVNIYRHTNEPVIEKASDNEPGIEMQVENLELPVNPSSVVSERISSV

[2] = Plasma protein binding by equilibrium dialysis, human; assay type: in vitro ADME; settings: for fraction unbound at 6 h, 1 μM: read-out: % Bound (converted); for recovery at 6 h, 1 µM: human, plasma
Method: The final concentration of compound was 1 μM. The final concentration of DMSO was 0.5%. Ketoconazole was used as positive control in the assay.
The assay was performed in duplicate.
All calculations were carried out using Microsoft Excel. […] The percentages of bound compound were calculated as follows: […]
Ketoconazole was used as positive control in the assay.

[3] = human plasma, equilibrium dialysis, 37° C., 6 hours

| Compound | IC50 [1] [nM] | Emax (% of serotonin) (human 5-HT2C receptor) | EC50 (human 5-HT2C receptor) [nM] | % Remaining @ 6 hours ([2]; Human plasma, 1 μM, 6 hours, 37° C.) [%] | fraction unbound at 6 h, 1 μM ([2]; Human plasma, 1 μM, equilibrium dialysis 6 hours, 37° C.) | recovery at 6 h, 1 µM ([2]; Human plasma, 1 μM, equilibrium dialysis 6 hours) [%] | % Remaining @ 6 hours ([2]; human plasma, 6 hours) [%] | fraction unbound at 6 h, 1 μM [2, 3] | recovery at 6 h, 1 µM [2, 3] [%] |
| --- | --- | --- | --- | --- | --- | --- | --- | --- | --- |
| [2H]C([2H])(c1c[nH]c2ccc(OCCCCCN3C(=O)C4CCCCC4C3=O)cc12)[C@H]1CCCN1C([2H])([2H])[2H] (mixture of isomers) [Rac (R) I-248] | 8.3 | – | – | – | – | – | – | – | – |
| CSc1ccc2[nH]cc(C[C@H]3CCCN3C)c2c1 [(R) I-1, (R)-3-((1-Methylpyrrolidin-2-yl)methyl)-5-(methylthio)-1H-indole] | 3 | 95.27 % of serotonin | 0.6 | 103.38 | 0.16 | 102 | – | – | – |
| COCCN1CCC[C@@H]1Cc1c[nH]c2ccc(OC)cc12 [(R) I-98, (R)-5-Methoxy-3-((1-(2-methoxyethyl)pyrrolidin-2-yl)methyl)-1H-indole] | 5 | 95.23 % of serotonin | 6.51 | – | – | – | 104.64 | 0.168 | 101 |
| [2H]C([2H])(c1c[nH]c2ccc(OCCCCN3C(=O)c4ccccc4C3=O)cc12)[C@H]1CCCN1C([2H])([2H])[2H] [(R) I-244, (R)-2-(4-((3-((1-(Methyl-d3)pyrrolidin-2-yl)methyl-d2)-1H-indol-5-yl)oxy)butyl)isoindoline-1,3-dione] | 15 | 87.27 % of serotonin | 2.53 | – | – | – | 105.89 | 0.0142 | 90.1 |
| [2H]C([2H])(c1c[nH]c2ccc(OCCCCCN3C(=O)c4ccccc4C3=O)cc12)[C@H]1CCCN1C([2H])([2H])[2H] [(R) I-245, (R)-2-(5-((3-((1-(Methyl-d3)pyrrolidin-2-yl)methyl-d2)-1H-indol-5-yl)oxy)pentyl)isoindoline-1,3-dione] | 5 | 83.29 % of serotonin | 42.3 | – | – | – | – | – | – |
| [2H]C([2H])(c1c[nH]c2ccc(OCCCCCN3C(=O)[C@H]4CCCC[C@H]4C3=O)cc12)[C@H]1CCCN1C([2H])([2H])[2H] [Cis (R) I-248, 2-(5-((3-(((R)-1-(Methyl-d3)pyrrolidin-2-yl)methyl-d2)-1H-indol-5-yl)oxy)pentyl)hexahydro-1H-isoindole-1,3(2H)-dione] | – | 89.99 % of serotonin | 151 | – | – | – | – | – | – |

Source: US12606543B2, “Indole derivatives as serotonergic agents useful for the treatment of disorders related thereto” (priority 2023, dated 2026)
